Source: patent publication US20150164967A1, “Personal Care Products Containing Extracts of Rosemary” (Kemin Industries, Inc., priority 2013, published 2015)

System: vesperlysine-like and pentosidine-like AGEs from albumin glycation
Experiment: Inhibition of AGE formation from albumin glycation (BSA + D-ribose, fluorescence)
Assay type: biochemical, bovine
Protocol: Following solutions were prepared for the assay: Reagent A: Phosphate buffer pH 7.0: 0.03 M KH2PO4 and 0.03 M K2HPO4 in ultrapure water (Millipore® Synergy® UV); Reagent B: 1.3 mg/mL aminoguanidine hydrochloride in phosphate buffer; Reagent C: 32 mg/mL Rosamox-Z in phosphate buffer; Reagent D: 30 mg/mL Zemea® Propanediol in phosphate buffer; Reagent E: 30 mg/mL BSA in phosphate buffer; Reagent F: 1.5 M D-ribose in phosphate buffer.
All the diluted samples (Sample B1-B5) were used for the AGE reaction.
Samples C1-C5 were diluted from the sample stock (reagent C) solution. Samples C6-C9 were diluted from Sample C5. All the diluted samples (Sample C1-C9) were used for the AGE reaction. Test samples D were diluted the same way as test samples C.
(Following Sero, L. et al. (2013) Tuning a 96-Well Microtiter Plate Fluorescence-Based Assay to Identify AGE Inhibitors in Crude Plant Extracts. Molecules. 18, 14320-14339.) A 96-well plate was prepared as follows (each sample was prepared in triplicate): Blank wells—50 μL BSA stock (reagent E) solution and 100 μL phosphate buffer (reagent A); Negative control wells—50 μL BSA stock (reagent E) and 50 μL diluent (Reagent A) to three empty wells; Positive control wells—50 μL BSA stock (reagent E) and 50 μL Aminoguanidine hydrochloride samples (Sample B1-B5); All treatments—50 μL BSA stock (reagent E) and 50 μL treatments (Sample C1-C9 and D1-D9); 50 μL D-ribose solutions (Reagent F) were added to every well except the blank wells.
The plates were read for fluorescence at λexc 370 nm λem 440 nm for versperlysines-like AGEs and λexc 335 nm λem 385 nm for pentosidine like AGEs. The plate was wrapped with aluminum foil to avoid light exposure and incubated at 37° C. and read again after 24 hours.
% inhibition was calculated as ((control 24 hours−control 0 hours)−(treatment 24 hours−treatment 0 hours))/(control 24 hours−control 0 hours).
FIG. 10 is a chart of the inhibition effect of Rosamox-Z on the formation of vesperlysine-like and pentosidine-like AGEs from albumin glycation. […]

| SMILES | predicted 1050 for these reactions (worked out from the Rosamox-Z value and 4% carnosic acid content) | inhibition effect for pentosidine-like AGEs (0-15 mg/mL, λexc 335 nm λem 385 nm, 24 h at 37° C.) | promoting effect for vesperlysines-like AGEs (0-15 mg/mL, λexc 370 nm λem 440 nm, 24 h at 37° C.) |
| --- | --- | --- | --- |
| CC(C)c1cc2c(c(O)c1O)[C@@]1(C(=O)O)CCCC(C)(C)[C@@H]1CC2 [carnosic acid] | 0.4 to 0.6 mg/mL | – | – |
| [2H]C([2H])(O)C([2H])([2H])C([2H])([2H])O [Zemea® Propanediol, Propanediol] | – | around 10% | around 5% |
